Results from publication PMC6022228, “Introducing novel potent anticancer agents of 1H-benzo[f]chromene scaffolds, targeting c-Src kinase enzyme with MDA-MB-231 cell line anti-invasion effect” (Journal of Enzyme Inhibition and Medicinal Chemistry, 2018).
Values after ≈ are worked out from the molar mass of the structure shown. Values joined by “and” are separate entries in the source; they are usually repeats but may differ in a detail not shown here. Equal values may be shown once. Read-outs that look alike come from different tables or passages of the source.

What was measured:
MCF-7 = assay: MTT viability assay, MCF-7 (breast cancer); format: cell-based; details: Homo sapiens, MCF7, 24 h incubation, mean ± standard error
Protocol: (§1) Compounds 4a–h and 6a–h were initially evaluated for in vitro antitumour activity against three different human cell lines: MCF-7, HCT-116, and HepG-2, and only the representative active cytotoxic compounds were further evaluated against the normal HFL-1 cell line. The in vitro cytotoxicity evaluation was performed at the Regional Center for Mycology & Biotechnology (RCMP), Al-Azhar University under different concentrations (50, 25, 12.5, 6.25, 3.125, 1.56, and 0 µg/mL); Vinblastine and Doxorubicin are used as reference cytotoxic compounds. The measurements of cell growth and the in vitro cytotoxicity evaluation were determined using viability assay as described in literature[31–33] and the result was cited in Table 1 and Figure 2.
(§2) The in vitro cytotoxic evaluation of the prepared compounds 4a–h and 6a–h was performed against MCF-7 (breast cancer), HCT-116 (human colon cancer), HepG-2 (liver cancer), and HFL-1(normal fibroblast lung) using the 3-(4,5-dimethylthiazol-2-yl)-2,5-diphenyl tetrazolium bromide (MTT) colorimetric assay as described in literature. […] The results were expressed as growth inhibitory concentration (IC50) values, which represent the compounds’ concentrations required to produce a 50% inhibition of the cell growth after 24 h of incubation, compared to the untreated controls as shown in Table 1 and Figure 2.

HCT-116 = assay: MTT viability assay, HCT-116 (human colon cancer); format: cell-based; details: 24 h incubation, mean ± standard error
Protocol: as §1, §2

HepG-2 = assay: MTT viability assay, HepG-2 (liver cancer); format: cell-based; details: Homo sapiens, HepG2, 24 h incubation, mean ± standard error
Protocol: as §1, §2

HFL-1 = assay: MTT viability assay, HFL-1 (normal fibroblast lung); format: cell-based; details: Homo sapiens, HFL1, 24 h incubation, normal cell line, mean ± standard error
Protocol: as §1, §2

[1] = system: caspases 3/7 in MDA-MB-231 cells; assay: Caspase-Glo 3/7 activity assay; format: cell-based; details: Homo sapiens, 24 h treatment, 10 concentrations, read-out: Caspase-Glo 3/7 activity assay, MDA-MB-231 cell line, IC50
Protocol: The Caspase-Glo 3/7 activity assay was performed by Reaction Biology Corporation, One Great Valley Parkway, PA. Examined compounds 4c, 4e, 4h, 6d, and 6e were dissolved in DMSO as 20 mM stock and tested for their ability to Caspase-Glo 3/7 activity assay. […] Caspase-Glo 3/7 activity assay reagent was purchased from Promega (Madison, WI). MDA-MB-231 cell line was provided by ATCC. MDA-MB-231 cell line culture conditions: DMEM with 10% FBS. 100 µg/mL penicillin and 100 µg/mL streptomycin were added to the culture media. Cultures were maintained at 37 °C in a humidified atmosphere of 5% CO2 and 95% air.
Caspases are […] that promote apoptosis. Caspases are vital biochemical features of apoptotic signalling. […] To determine whether the cell growth inhibition in response to the benzochromene derivatives was mediated by apoptosis and was caspase dependent, MDA-MB-231 cells were treated with 10 different concentrations of the target compounds for 24 h.

c-Src kinase = molecular target: T1, c-Src kinase (Homo sapiens, UniProt P12931); assay: c-Src kinase assay (HTScan Src Kinase Assay Kit); format: biochemical; details: GST-Src kinase, triplicate; read-out: Inhibition of c-Src kinase activity, IC50
T1 construct: purchased Cell Signaling Technology (Danvers, MA) 7776
Protocol: Streptavidin-coated plates were purchased from Pierce (Rockford, IL). […] The reaction mixture was incubated for 30 min at room temperature. The kinase reaction was stopped with the addition of 50 µL of 50 mM EDTA (pH 8.0). […] At the end of the incubation, the wells were washed three times with 200 µL of 0.05% Tween-20 in PBS buffer (PBS/T). After that to each well was added 100 µL of phosphotyrosine antibody (P-Tyr-100) (1:1000 dilution in PBS/T with 1% BSA) and the wells were incubated for another 60 min. After washing three times with 0.05% Tween-20 in PBS/T, the wells were incubated with 100 µL secondary anti-mouse IgG antibody, which was HRP-conjugated (1:500 dilution in PBS/T with 1% BSA) for next 30 min at room temperature. The wells were washed five times with 0.05% Tween-20 in PBS and then were incubated with 100 µL of 3,3′,5,5′-tetramethylbenzidine dihydrochloride substrate for 5 min. […] IC50 values of the compounds were calculated using ORIGIN 6.0 (Origin Lab Corporation, Northampton, MA) software. […] All the experiments were carried out in triplicate.

MDA-MB-231 cell line = assay: Cell invasion assay; format: cell-based; details: Homo sapiens
Protocol: The cell invasion assay was performed by Reaction Biology Corporation, One Great Valley Parkway, PA. All compounds were dissolved in DMSO and tested for their ability to cell invasion assay. Compounds 4c, 6e, and reference compound bosutinib were purchased from Sellechem (Houston, TX). Corning Bio Coat Fluoro Blok Insert System-96-well plates were purchased from Corning (Corning Incorporated, Tewksbury, MA). Calcein AM labelling reagent was purchased from Molecular Probes (Eugene, Oregon). MDA-MB-231 cell line was purchased from American Type Culture Collection (Manassas, VA). MDA-MB-231 cells were grown in DMEM medium supplemented with 10% foetal bovine serum (FBS), 100 µg/mL of penicillin, and 100 µg/mL of streptomycin. Cultures were maintained at 37 °C in a humidified atmosphere of 5% CO2 and 95% air-following incubation; medium was carefully removed from the apical chambers. The insert system was transferred into a second 96-square well plate containing 200 µl/well of 4 µg/mL Calcein AM in HBSS. The plates were incubated for 1 h at 37 °C, 5% CO2. Fluorescence of invaded cells was read at wavelengths of 492/535 nm (Ex/Em) from bottom reading using Envision 2104 Multilabel Reader (PerkinElmer, Santa Clara, CA). The IC50 curves were plotted and IC50 values were calculated using the Graph Pad Prism 4 program for windows (Graph Pad software, San Diego California. www.graphpad.com) based on a sigmoidal dose-response equation.
Tumour invasion is a common feature of triple-negative breast cancers. […] The invasion process has become an important prerequisite for cancer progression and metastasis. […] A bosutinib drug was used as a control ant-invasive agent. […] The obtained data might confirm that the cytotoxicity of novel molecules led to the death of the cancer cells and stopped the metastatic processes.

[2] = Table 2, read-out: IC50 anti-invasion, MDA-MB-231 breast cancer cells

T1 sequence (P12931 whole entry): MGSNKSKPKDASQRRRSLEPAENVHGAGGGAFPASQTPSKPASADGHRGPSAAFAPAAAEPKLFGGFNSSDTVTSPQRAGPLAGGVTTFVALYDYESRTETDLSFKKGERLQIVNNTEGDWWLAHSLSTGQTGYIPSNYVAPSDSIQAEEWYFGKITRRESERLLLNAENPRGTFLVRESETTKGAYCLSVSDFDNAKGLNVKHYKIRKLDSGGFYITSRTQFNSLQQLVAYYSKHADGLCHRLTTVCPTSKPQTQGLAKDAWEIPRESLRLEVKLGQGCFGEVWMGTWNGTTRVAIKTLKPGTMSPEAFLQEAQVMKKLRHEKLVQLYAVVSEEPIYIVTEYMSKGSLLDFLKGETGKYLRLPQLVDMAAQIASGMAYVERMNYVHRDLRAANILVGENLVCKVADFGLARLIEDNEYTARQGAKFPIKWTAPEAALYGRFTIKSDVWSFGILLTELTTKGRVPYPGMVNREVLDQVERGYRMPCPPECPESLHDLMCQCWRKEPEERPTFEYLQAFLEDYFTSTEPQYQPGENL

Compound	IC50 (MCF-7) [µg/mL]	IC50 (HCT-116) [µg/mL]	IC50 (HepG-2) [µg/mL]	IC50 [1] [nM]	IC50 (c-Src kinase)	melting point [°C]	IC50 (MDA-MB-231 cell line; [2]) [nM]	IC50 (MDA-MB-231 cell line; read-out: IC50 anti-invasion activity, MDA-MB-231) [nM]	IC50 (HFL-1) [µg/mL]
Cc1ccc(C2C(C#N)=C(N)Oc3ccc4cc(Br)ccc4c32)cc1 (stereo not drawn) [Compound 4e, 3-Amino-8-bromo-1-(4-methylphenyl)-1H-benzo[f]chromene-2-carbonitrile]	2.5 ± 0.18 (≈ 6.39 µM)	0.7 ± 0.25 (≈ 1.79 µM)	0.9 (≈ 2.3 µM)	19500	9 nM	215 to 216			22.4 ± 0.21 (≈ 57.2 µM)
COc1ccc(C2C(C#N)=C(N)Oc3ccc4cc(Br)ccc4c32)cc1OC (stereo not drawn) [Compound 4h, 3-Amino-8-bromo-1-(3,4-dimethoxyphenyl)-1H-benzo[f]chromene-2-carbonitrile]	0.66 ± 0.04 (≈ 1.51 µM)	4.1 ± 0.16 (≈ 9.38 µM)	11 ± 0.02 (≈ 25.2 µM)	31500	214 to 329 nM and 214 nM	200 to 201			12.9 ± 0.13 (≈ 29.5 µM)
CN[C@@H]1C[C@H]2O[C@@](C)([C@@H]1OC)n1c3ccccc3c3c4c(c5c6ccccc6n2c5c31)C(=O)NC4 [Staurosporine, staurosporine, reference compound]				68.5					
N#CC1=C(N)Oc2ccc3cc(Br)ccc3c2C1c1ccc(Cl)cc1 (stereo not drawn) [Compound 4c, 3-Amino-8-bromo-1-(4-chlorophenyl)-1H-benzo[f]chromene-2-carbonitrile]	0.5 ± 0.23 (≈ 1.21 µM)	0.7 ± 0.11 (≈ 1.7 µM)	1.1 ± 0.12 (≈ 2.67 µM)	22600	9 to 329 nM and 89 nM	260 to 261	10800	10500	15.2 ± 0.1 (≈ 36.9 µM)

Further lines, with some results ahead:

IC50 (MCF-7) [µg/mL]	IC50 (HCT-116) [µg/mL]	IC50 (HepG-2) [µg/mL]	IC50 [1] [nM]	IC50 (c-Src kinase)	melting point [°C]	IC50 (MDA-MB-231 cell line; [2]) [nM]	IC50 (MDA-MB-231 cell line; read-out: IC50 anti-invasion activity, MDA-MB-231) [nM]	Compound	IC50 (HFL-1) [µg/mL]
2 ± 0.25 (≈ 4.91 µM)	0.9 ± 0.58 (≈ 2.21 µM)	0.7 ± 0.13 (≈ 1.72 µM)	25600	214 to 329 nM and 329 nM	261 to 262			COc1ccc2c3c(ccc2c1)OC(N)=C(C#N)C3c1ccc(Br)cc1 (stereo not drawn) [Compound 6d, 3-Amino-1-(4-bromophenyl)-8-methoxy-1H-benzo[f]chromene-2-carbonitrile]	35.5 ± 0.22 (≈ 87.2 µM)
0.3 ± 0.05 (≈ 0.876 µM)	0.8 ± 0.06 (≈ 2.34 µM)	0.6 ± 0.21 (≈ 1.75 µM)	38900	9 nM	232 to 233	16500		COc1ccc2c3c(ccc2c1)OC(N)=C(C#N)C3c1ccc(C)cc1 (stereo not drawn) [Compound 6e, 3-Amino-8-methoxy-1-(4-methylphenyl)-1H-benzo[f]chromene-2-carbonitrile]	29.7 ± 0.17 (≈ 86.7 µM)
